Measurements reported in patent US20250223628A1, “METHODS OF IMPROVING SURVIVAL AND ELIMINATING TREATMENT-LIMITING TOXICITIES OF DICHLOROACETATE IN PATIENTS WITH PYRUVATE DEHYDROGENASE COMPLEX DEFICIENCY” (SAOL INTERNATIONAL DEVELOPMENT LTD., priority 2024, published 2025).
Read-outs that look alike come from different tables or passages of the source.

Key:
patients with PDCD [1] = experiment: Prospective, randomized, double-blind, placebo-controlled crossover study with GSTZ1 haplotype-based DCA dosing and open-label extension; format: in vivo, human
Experimental: A prospective, randomized, double-blind, placebo-controlled crossover study was conducted in patients with PDCD. This study was the first study to prospectively use GSTZ1 haplotype testing to identify a dose that may help to mitigate the risk of peripheral neuropathy from chronic administration of DCA. These patients were treated with either DCA or placebo for 4 months, provided placebo for a 1-month washout period and then were placed on the placebo or DCA, whichever they had not taken prior. Patients then had the option to continue on open-label DCA until the ultimate completion of the study or regulatory approval. 34 PDCD patients were recruited into the study. 7 (21%) of these patients were prospectively identified as “slow metabolizers”. Rather than having a dose of 25 mg/kg/day, these patients were provided DCA doses at 12.5 mg/kg/day. Both dosing groups took DCA in two equal, weight-based doses. This was the first prospective study completed using the haplotype testing and conducted solely in the PDCD patient population.
The study had anticipated a 20% dropout rate due to death or peripheral neuropathy.

patients with PDCD [2] = experiment: Survival analysis of DCA treatment cohort versus DeBrosse natural history cohort; format: in vivo, human; details: for Adjusted Odds Ratio (95% CI): DCA vs natural history
Experimental: As a result, an analysis procedure was identified that used the data available in the DeBrosse natural history study to assess whether or not DCA extended life. The analysis was conducted to answer the following questions: • a. Did the year of birth have any effect on survival? For example, has standard of care improved. • b. Is the primary driver of survival differences from natural history driven by the ketogenic diet, the current standard of care, although empirical approach to managing PDCD patients? • c. Once the population is controlled for an index age, gender and age of disease onset, does DCA provide a survival benefit? • d. Once the population is controlled for an index age and age of disease onset, does DCA provide a survival benefit? • e. Once the population has the maximum duration of follow-up, including with patients that discontinued treatment, does DCA provide a survival benefit?
After accounting for two patients with multiple exclusion criteria, 34 patients (14 males and 20 females) from the DeBrosse study remain for potential matching for the current analyses.
Baseline characteristics related to drug and non-drug treatment, age at the earliest recorded of first related symptom, initiation of the ketogenic diet or diagnosis and other baseline demographics were compared for each analysis. It was notable that the Phase III cohort had more females. This was controlled by conducting a 1:1 matched cohort in the primary analysis that requires gender matching.
A summary of all analyses conducted with both Kaplan-Meier log-rank statistics and hazard/odds ratio reductions are provided below: […]

[3] = cited from earlier work
[4] = test system: patients with congenital lactic acidosis (CLA); details: 25 mg/kg broken into two daily doses, cited from earlier work
[5] = Abdelmak 2013, Congenital Lactic Acidosis, 8 total patients
[6] = Dunbar 2014, Recurrent Malignant Brain Tumor, 8 total patients
[7] = Kaufmann 2006, MELAS, 15 total patients
[8] = Michelakis 2017, Pulmonary Arterial Hypertension, 20 total patients
[9] = Stacpoole 2008, Congenital Lactic Acidosis, 36 total patients

SMILES: O=C(O)C(Cl)Cl [DCA, Dichloroacetate]
- Completion of the double-blind portion (patients with PDCD [1]; 34 PDCD patients, 25 or 12.5 mg/kg/day by haplotype): all of the patients completed
- Dropouts for other reasons (patients with PDCD [1]; double-blind portion): zero
- Events of peripheral neuropathy (patients with PDCD [1]; double-blind study): zero
- Events of neuropathy possibly related to therapy (patients with PDCD [1]; open-label phase, occurred after 18 months of exposure): one
- Adjusted Odds Ratio (95% CI) (patients with PDCD [2]; Full Cohort Comparison, multivariate P 0.0065): 0.014
- Adjusted Odds Ratio (95% CI) (patients with PDCD [2]; Matched on Age and Sex, Excluding 1980s Patients with Extended Follow-Up, multivariate P 0.0055): 0.023
- Adjusted Odds Ratio (95% CI) (patients with PDCD [2]; Matched on Age and Sex, Excluding 1980s Patients, multivariate P 0.0033): 0.0072
- Adjusted Odds Ratio (95% CI) (patients with PDCD [2]; Matched on Age, multivariate P 0.0012): 0.0071
- Adjusted Odds Ratio (95% CI) (patients with PDCD [2]; Matched on Sex and Follow-Up Duration, multivariate P 0.024): 0.026
- Adjusted Odds Ratio (95% CI) (patients with PDCD [2]; Primary Analysis with Extended Follow-Up, multivariate P 0.0029): 0.013
- Adjusted Odds Ratio (95% CI) (patients with PDCD [2]; Primary Analysis: Matched on Age and Sex, multivariate P 0.0061): 0.011
- DCA Treatment Cohort Mortality Rate (95% CI) (patients with PDCD [2]; Full Cohort Comparison, N 33, log rank P 0.003): 0.00
- DCA Treatment Cohort Mortality Rate (95% CI) (patients with PDCD [2]; Matched on Age and Sex with Replacement with Extended Follow-Up, N 31, log rank P 0.0443): 1.38
- DCA Treatment Cohort Mortality Rate (95% CI) (patients with PDCD [2]; Matched on Age and Sex with Replacement, N 31, log rank P 0.0295): 0.00
- DCA Treatment Cohort Mortality Rate (95% CI) (patients with PDCD [2]; Matched on Age and Sex with Unknown Onset Imputed at 0, N 28, log rank P 0.0273): 0.00
- DCA Treatment Cohort Mortality Rate (95% CI) (patients with PDCD [2]; Matched on Age and Sex with Unknown Onset Imputed at 0 with Extended Follow-Up, N 28, log rank P 0.0357): 1.55
- DCA Treatment Cohort Mortality Rate (95% CI) (patients with PDCD [2]; Matched on Age and Sex, Excluding 1980s Patients with Extended Follow-Up, N 25, log rank P 0.0899): 1.74
- DCA Treatment Cohort Mortality Rate (95% CI) (patients with PDCD [2]; Matched on Age and Sex, Excluding 1980s Patients, N 25, log rank P 0.0255): 0.00
- DCA Treatment Cohort Mortality Rate (95% CI) (patients with PDCD [2]; Matched on Age, N 32, log rank P 0.0019): 0.00
- DCA Treatment Cohort Mortality Rate (95% CI) (patients with PDCD [2]; Matched on Sex and Follow-Up Duration, N 28, log rank P 0.0211): 0.00
- DCA Treatment Cohort Mortality Rate (95% CI) (patients with PDCD [2]; Primary Analysis with Extended Follow-Up, N 28, log rank P 0.0357): 1.55
- DCA Treatment Cohort Mortality Rate (95% CI) (patients with PDCD [2]; Primary Analysis: Matched on Age and Sex, N 28, log rank P 0.0273): 0
- Peripheral Neuropathy Adverse Event Rate [3, 5]: 38%
- Peripheral Neuropathy Adverse Events [3, 5]: 3
- Peripheral Neuropathy Adverse Event Rate [3, 6]: 25%
- Peripheral Neuropathy Adverse Events [3, 6]: 2
- Peripheral Neuropathy Adverse Event Rate [3, 7]: 100%
- Peripheral Neuropathy Adverse Events [3, 7]: 15
- Peripheral Neuropathy Adverse Event Rate [3, 8]: 25%
- Peripheral Neuropathy Adverse Events [3, 8]: 5
- Peripheral Neuropathy Adverse Event Rate [3, 9]: 36%
- Peripheral Neuropathy Adverse Events [3, 9]: 13
- Peripheral Neuropathy Adverse Events ([3]; Total of five studies, 87 total patients): 38
- Peripheral Neuropathy Adverse Event Rate ([3]; Total of several studies across multiple disease states, 87 total patients): 44%
- Dose required for a similar pharmacokinetic exposure ([3]; slow metabolizer group of GSTZ1 haplotypes, fraction of the dose): roughly ½
- Recovery from peripheral neuropathy exhibited during DCA administration ([3]; time to recovery): ≤ 9 months
- Patients who experienced peripheral neuropathy ([4]; double blind portion): 36%
- Patients who experienced peripheral neuropathy ([4]; long-term extension arm): 38%
